Data set [1] concerns Mycobacterium tuberculosis H37Rv strains. The data set can be described thus: In vitro assay for antimicrobial susceptibility (microplate Alamar blue MIC). Format: cell-based. Particulars: Mycobacterium tuberculosis, H37RV, in vitro, Mycobacterium tuberculosis H37Rv strains; read-out: MIC (μg/mL) against H37Rv. Background: Alamar Blue is a resazurin reagent that responds to reducing activity.

Data set [2] concerns tuberculosis. Particulars: monkey model; cited from earlier work.
In data set [3] the test system is tuberculosis. Particulars: hamsters; cited from earlier work.
Data set [4] deals with tuberculosis. Particulars: mice; cited from earlier work.
In data set [5] the test system is tuberculosis. The settings on record: guinea pig model; cited from earlier work.
The conditions of data set [6]: in vivo; cited from earlier work.
The subject of data set [7] is Mycobacterium tuberculosis. The settings on record: relative to clofazimine; cited from earlier work.

In brackets after ≈: the same amount, converted by molar mass. Read-outs that look alike come from different tables or passages of the source.

As usually defined, the melting point is the temperature of the solid-liquid transition. For the compound `Clc1ccc(-n2c3c/c(=N\C4CCCCC4)c(Nc4cccnc4)cc-3nc3ccccc32)cc1` [TBI-422, 5-(4-Chlorophenyl)-3-cyclohexylimino-2-(3-pyridyl)amino-3,5-dihydrophenazine], the melting point was in the range of 194 to 196 °C. In data set [1], the MIC stood at 0.06 µg/mL (≈ 0.125 µM).
On the same counts, the results for `CC(C)/N=c1\cc2n(-c3cccc(F)c3)c3ccccc3nc-2cc1Nc1cccnc1` [TBI-522, 5-(3-Fluorophenyl)-3-(1-methylethyl)imino-2-(3-pyridyl)amino-3,5-dihydrophenazine] are 164 to 166 °C and 0.062 µg/mL (≈ 0.146 µM).
Broadly, the half-life is the time in which the quantity being followed falls by half. For the compound `CC(C)/N=c1\cc2n(-c3ccc(Cl)cc3)c3ccccc3nc-2cc1Nc1ccc(Cl)cc1` [clofazimine], the efficacy entry in data set [2] and in data set [5] was “failed to show efficacy” each time. The “in vivo anti-TB activity” value in data set [3] and in data set [4] was “demonstrated in vivo anti-TB activity” throughout. Also, the half-life in data set [6] is listed as 70 days.
Regarding `CCN(CC)CCC/N=c1\cc2n(-c3ccc(Cl)c(Cl)c3)c3ccccc3nc-2cc1Nc1ccc(Cl)c(Cl)c1` [B4154], the in vitro activity result in data set [7] is “improved in vitro activity”.
`COc1ncccc1Nc1cc2nc3ccccc3n(-c3ccc(Br)cc3)c-2c/c1=N\C1CC1` [TBI-519, 5-(4-Bromophenyl)-3-cyclopropylimino-2-(2-methoxy-3-pyridyl)amino-3,5-dihydrophenazine] displayed a melting point of 217 to 218 °C. For the same compound, in data set [1], the MIC worked out at 0.015 µg/mL (≈ 0.0293 µM).
Take `Clc1ccc(-n2c3c/c(=N\C4CCOCC4)c(Nc4cccnc4)cc-3nc3ccccc32)cc1` [TBI-434, 5-(4-Chlorophenyl)-3-(4-tetrahydropyranyl)imino-2-(3-pyridyl)amino-3,5-dihydrophenazine]: the melting point fell in the range of 215 to 217 °C. In addition, in data set [1], the MIC came to 0.03 µg/mL (≈ 0.0622 µM).

Values taken from US8716292B2, “Riminophenazines with 2-(heteroaryl)amino substituents and their anti-microbial activity” (priority 2010, dated 2014).
